In PMC3345088 (Journal of Immunology (Baltimore, Md. : 1950), 2012):
Where two headings read alike, the source gives them in different places.

How the values were obtained:
[1] = system: CD4+ T cells from LTBI donors; experiment: HLA locus restriction, antibody inhibition IFNγ ELISPOT; format: cell-based, human; details: antibodies 10 µg/ml against HLA-DR, DP or DQ
DRB1*01:01 = DRB1*01:01 (Homo sapiens, UniProt P01903+P01911, A100R/D57E/F55L/F60I/F76Y/I96L/L162R/M171V/P40L/Q125E/R42F/V115G/Y59C); experiment: MHC-peptide binding assay
HLA class II alleles = system: HLA class II alleles; design: species or system human

## CFP10 40–54: 15-mer peptide epitope, residues 40–54 of CFP10 (Rv3874) (QGQWRGAAGTAAQAA; UniProt P9WNK5 40-54, looked up, fragment)
[1]; donor TU7
  Restricting HLA locus: DP, DQ, DR
DRB1*01:01
  Binding to DRB1*01:01: high affinity
HLA class II alleles
  Donors that responded expressing DRB1*01:01: 3 of 4

## CFP10 52–66: 15-mer peptide epitope, residues 52–66 of CFP10 (Rv3874)
HLA class II alleles
  No. donors expressing allele resp.: 4 of 5
HLA class II alleles; listed as CFP10_52–66
  No. donors expressing allele resp.: 4 out of 5

## CFP10 72–86: 15-mer peptide epitope, residues 72–86 of CFP10 (Rv3874) (ISTNIRQAGVQYSRA; UniProt P9WNK5 72-86, looked up, fragment)
[1]; donor TU2
  Restricting HLA locus: DP, DQ, DR
[1]; donor TU11
  Restricting HLA locus: DP, DQ, DR

## ESAT-6 3–17: 15-mer peptide epitope, residues 3–17 of ESAT-6 (Rv3875) (EQQWNFAGIEAAASA; UniProt P9WNK7 3-17, looked up, fragment)
[1]; donor TU25
  Restricting HLA locus: DQ, DR

## ESAT-6 73–87: 15-mer peptide epitope, residues 73–87 of ESAT-6 (Rv3875) (ARTISEAGQAMASTE; UniProt P9WNK7 73-87, looked up, fragment)
HLA class II alleles
  No. donors expressing allele resp.: 3 of 5
HLA class II alleles; listed as ESAT-6_72–87
  No. donors expressing allele resp.: 3 out of 5

## Rv2031c 106–120: 15-mer peptide epitope, residues 106–120 of Rv2031c (hspX) (VGADEDDIKATYDKG; UniProt P9WMK1 106-120, looked up, fragment)
[1]; donor TU2
  Restricting HLA locus: DP, DR
[1]; donor TU8
  Restricting HLA locus: DP, DQ, DR
[1]; donor TU29
  Restricting HLA locus: DP, DR
